From publication PMC10674866, “Electrosprayed Nanoparticles Containing Mangiferin-Rich Extract from Mango Leaves for Cosmeceutical Application” (Nanomaterials, 2023) come the findings set out here.

As a reminder, the IC50 is the midpoint of a concentration-inhibition curve.

Common to all, as to type: biochemical
The target of assay [1] is T1, collagenase from Histidium histolyticum.
T1 construct: gene colG
Put plainly: fluorescence assay of collagen hydrolysis ([…],4-DHPAA / periodate). Particulars: collagen substrate; borate buffer pH 7.5; 5 mM CaCl2; 37 °C.

The target in assay [2] is T2, tyrosinase from mushroom.
T2 construct: gene PPO1
Put plainly: absorbance at […] nm. Particulars: L-tyrosine substrate; 20 mM phosphate pH 6.8; room temperature.

For assay [3], the target named is T3, hyaluronidase from bovine (Bos taurus, UniProt Q2YDK3).
T3 construct: gene SPAM1; commercial native enzyme (Sigma-Aldrich)
T3 sequence (Q2YDK3 36-553): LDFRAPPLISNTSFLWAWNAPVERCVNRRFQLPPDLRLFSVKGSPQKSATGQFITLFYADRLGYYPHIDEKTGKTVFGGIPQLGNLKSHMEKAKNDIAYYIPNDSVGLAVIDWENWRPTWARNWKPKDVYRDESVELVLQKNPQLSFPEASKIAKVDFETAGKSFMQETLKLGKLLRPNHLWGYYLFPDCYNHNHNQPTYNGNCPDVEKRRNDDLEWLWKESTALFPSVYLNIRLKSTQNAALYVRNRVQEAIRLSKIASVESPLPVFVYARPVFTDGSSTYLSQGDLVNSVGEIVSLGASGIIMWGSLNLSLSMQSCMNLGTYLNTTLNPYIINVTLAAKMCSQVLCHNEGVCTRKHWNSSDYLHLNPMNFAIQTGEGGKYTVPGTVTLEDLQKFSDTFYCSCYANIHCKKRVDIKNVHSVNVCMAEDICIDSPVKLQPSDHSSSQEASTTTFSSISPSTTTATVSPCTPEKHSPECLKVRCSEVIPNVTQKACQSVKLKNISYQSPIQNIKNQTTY
Put plainly: turbidity with acidic albumin, absorbance at […] nm. Particulars: read-out: % inhibition at 40.0 μg/mL.

SMILES strings stand for the structures. ≈ marks a conversion by molar mass, not a printed value.

`O=C1O[C@H]([C@@H](O)CO)C(O)=C1O` [ascorbic acid]: the values for the IC50 in assay [1] and in assay [2] were 107.84 ± 0.001 µg/mL (≈ 612 µM) and 69.8 ± 0.018 µg/mL (≈ 396 µM), respectively.

`O=c1c2cc(O)c(O)cc2oc2cc(O)c([C@@H]3O[C@H](CO)[C@@H](O)[C@H](O)[C@H]3O)c(O)c12` [mangiferin]: in assay [1], the IC50 came to 30.06 ± 0.001 µg/mL (≈ 71.2 µM). Moreover, the inhibition at 40 µg/mL in assay [3] is 1.72 ± 1.13%.
